The source of these data is US20220251116A1, “ALKYLBORONIC ACIDS AS ARGINASE INHIBITORS” (Guangdong Newopp Biopharmaceuticals Co., Ltd., priority 2019, published 2022).

Counter-ions that a name gives are not always drawn. Where only a bound is given, the exact number is not on record here.

The experiment addresses T1, recombinant human arginase 1 (Homo sapiens, UniProt P05089).
T1 sequence (P05089 1-322): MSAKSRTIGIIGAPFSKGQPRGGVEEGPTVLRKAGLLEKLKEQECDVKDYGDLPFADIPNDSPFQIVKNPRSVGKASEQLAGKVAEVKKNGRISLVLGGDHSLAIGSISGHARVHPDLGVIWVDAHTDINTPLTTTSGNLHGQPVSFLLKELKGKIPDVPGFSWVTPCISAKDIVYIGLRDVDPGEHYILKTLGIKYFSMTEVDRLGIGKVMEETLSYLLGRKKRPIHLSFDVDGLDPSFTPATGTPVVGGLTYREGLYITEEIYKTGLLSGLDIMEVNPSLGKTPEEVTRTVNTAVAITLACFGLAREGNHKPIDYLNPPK
Briefly: Arginase inhibitory activity test, enzymatic assay based on urea measurement (Arg 1).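 Note: enzyme incubated with L-arginine substrate and compound at 37 °C for 120 min, urea product detected colorimetrically by absorbance at 450 nm, background from wells lacking enzyme.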
Description: An enzymatic assay with recombinant human arginases 1 or 2 was used to measure inhibitory activity of the compounds. The assay is based on urea measurement, which is a product of L-arginine enzymatic degradation.
Briefly, arginase and the substrate solution containing L-arginine were incubated in the absence or presence of varying concentrations of compounds at 37° C. for 120 min. For the background correction, only the substrate solution was added without arginase. The urea detection reagent from QuantiChrome™ Urea assay kit (BioAssay Systems, CA) was added to develop the color product. After 60 min at room temperature, the absorbance was measured at 450 nm with CLARIOstar (BMG LABTECH). Urea was used as the standard.
For `N[C@@]1(C(=O)O)CN(S(=O)(=O)N(CC(F)(F)F)C2CNC2)C[C@@H]1CCCB(O)O` [Example 66, (3R,4S)-3-amino-1-(N-(azetidin-3-yl)-N-(2,2,2-trifluoroethyl)sulfamoyl)-4-(3-boronopropyl)pyrrolidine-3-carboxylic acid, 2,2,2-trifluoroacetic acid salt (1:2)], the IC50 was less than 0.1 µM.

Take `CCCCN(C1CNC1)S(=O)(=O)N1C[C@H](CCCB(O)O)[C@](N)(C(=O)O)C1` [Example 61, (3R,4S)-3-amino-1-(N-(azetidin-3-yl)-N-butylsulfamoyl)-4-(3-boronopropyl)pyrrolidine-3-carboxylic acid, 2,2,2-trifluoroacetic acid salt (1:2)]: the IC50 is less than 0.1 µM. The same measure for `N[C@H]1CC1NS(=O)(=O)N1C[C@H](CCCB(O)O)[C@](N)(C(=O)O)C1` (relative stereo) [Example 40, (3R,4S)-3-amino-1-(N-((cis)-2-aminocyclopropyl)sulfamoyl)-4-(3-boronopropyl)pyrrolidine-3-carboxylic acid, 2,2,2-trifluoroacetic acid salt (1:2)]: 0.1 to 1 µM; for `CNCCNS(=O)(=O)N1C[C@H](CCCB(O)O)[C@](N)(C(=O)O)C1` (racemic) [Example 46, (racemic)-trans-3-amino-4-(3-boronopropyl)-1-(N-(2-(methylamino)ethyl)sulfamoyl)pyrrolidine-3-carboxylic acid, 2,2,2-trifluoroacetic acid salt (1:2)]: 0.1 to 1 µM.

Consider `N[C@H]1CCCCC1NS(=O)(=O)N1C[C@H](CCCB(O)O)[C@](N)(C(=O)O)C1` (mixture of isomers) [Example 22, (rac)-trans-3-amino-1-(N-(trans-2-aminocyclohexyl)sulfamoyl)-4-(3-boronopropyl)pyrrolidine-3-carboxylic acid (diastereomers), 2,2,2-trifluoroacetic acid salt (1:2)], for which the IC50 lay within 0.1 to 1 µM. The same measure for `NCC1(NS(=O)(=O)N2C[C@H](CCCB(O)O)[C@](N)(C(=O)O)C2)CC1` (racemic) [Example 12, (rac)trans-3-amino-1-(N-(1-(aminomethyl)cyclopropyl)sulfamoyl)-4-(3-boronopropyl)pyrrolidine-3-carboxylic acid, (1:2) 2,2,2-trifluoroacetic acid salt]: less than 0.1 µM; for `CN(CCN)S(=O)(=O)N1C[C@H](CCCB(O)O)[C@](N)(C(=O)O)C1` [Example 27, (3R,4S)-3-amino-1-(N-(2-aminoethyl)-N-methylsulfamoyl)-4-(3-boronopropyl)pyrrolidine-3-carboxylic acid, 2,2,2-trifluoroacetic acid salt (1:2)]: less than 0.1 µM; for `CNCCN(C)S(=O)(=O)N1C[C@H](CCCB(O)O)[C@](N)(C(=O)O)C1` (racemic) [Example 47, (racemic)-trans-3-amino-4-(3-boronopropyl)-1-(N-methyl-N-(2-(methylamino)ethyl)sulfamoyl)pyrrolidine-3-carboxylic acid, 2,2,2-trifluoroacetic acid salt (1:2)]: less than 0.1 µM. Consider `CN(C)CCN(C)S(=O)(=O)N1C[C@H](CCCB(O)O)[C@](N)(C(=O)O)C1` (racemic) [Example 45, (racemic)-trans-3-amino-4-(3-boronopropyl)-1-(N-(2-(dimethylamino)ethyl)-N-methylsulfamoyl)pyrrolidine-3-carboxylic acid, 2,2,2-trifluoroacetic acid salt (1:2)], for which the IC50 fell in the range of 0.1 to 1 µM.

Regarding `C[C@@H](N)CNS(=O)(=O)N1C[C@H](CCCB(O)O)[C@](N)(C(=O)O)C1` (racemic) [Example 17, (rac)trans-3-amino-1-(N-((R)-2-aminopropyl)sulfamoyl)-4-(3-boronopropyl)pyrrolidine-3-carboxylic acid (diastereomers), 2,2,2-trifluoroacetic acid salt (1:2) (Diasteromers)], the IC50 was less than 0.1 µM. Consider `N=C(N)NCCNS(=O)(=O)N1C[C@H](CCCB(O)O)[C@](N)(C(=O)O)C1` (racemic) [Example 54, (racemic)-trans-3-amino-4-(3-boronopropyl)-1-(N-(2-guanidinoethyl)sulfamoyl)pyrrolidine-3-carboxylic acid, 2,2,2-trifluoroacetic acid salt (1:2)], for which the IC50 was in the range of 0.1 to 1 µM.

For the compound `CC(NS(=O)(=O)N1C[C@H](CCCB(O)O)[C@](N)(C(=O)O)C1)C1(N)CC1` (stereo partly drawn) [Example 58, (3R,4S)-3-amino-1-(N-(1-(1-aminocyclopropyl)ethyl)sulfamoyl)-4-(3-boronopropyl)pyrrolidine-3-carboxylic acid, 2,2,2-trifluoroacetic acid salt (1:2)], the half-inhibitory concentration (IC50) lay in the range of 0.1 to 1 µM.

In the case of `C[C@@H](N)C(=O)NS(=O)(=O)N1C[C@H](CCCB(O)O)[C@](N)(C(=O)O)C1` (racemic) [Example 35, (rac)-trans-1-(N-alanylsulfamoyl)-3-amino-4-(3-boronopropyl)pyrrolidine-3-carboxylic acid, 2,2,2-trifluoroacetic acid salt (1:2)], the IC50 lay within 0.1 to 1 µM. Consider `N=C(NC(=O)CN)N1C[C@H](CCCB(O)O)[C@](N)(C(=O)O)C1` (racemic) [Example 38, rac-(trans)-3-amino-4-(3-boronopropyl)-1-(N-glycylcarbamimidoyl)pyrrolidine-3-carboxylic acid, 2,2,2-trifluoroacetic acid salt (1:2)], for which the IC50 lay in the range of 0.1 to 1 µM. With `CC(C)CN(C1CNC1)S(=O)(=O)N1C[C@H](CCCB(O)O)[C@](N)(C(=O)O)C1` [Example 60, (3R,4S)-3-amino-1-(N-(azetidin-3-yl)-N-isobutylsulfamoyl)-4-(3-boronopropyl)pyrrolidine-3-carboxylic acid, 2,2,2-trifluoroacetic acid salt (1:2)], the IC50 is less than 0.1 µM. The same measure for `N=C(N)NC(=O)N1C[C@H](CCCB(O)O)[C@](N)(C(=O)O)C1` (racemic) [Example 51, (racemic)-trans-3-amino-4-(3-boronopropyl)-1-(carbamimidoylcarbamoyl)pyrrolidine-3-carboxylic acid, 2,2,2-trifluoroacetic acid salt (1:2)]: 0.1 to 1 µM; for `NC1CC1N(CC1CC1)S(=O)(=O)N1C[C@H](CCCB(O)O)[C@](N)(C(=O)O)C1` (stereo partly drawn) [Example 69, (3R,4S)-3-amino-1-(trans-N-(2-aminocyclopropyl)-N-(cyclopropylmethyl)sulfamoyl)-4-(3-boronopropyl)pyrrolidine-3-carboxylic acid, 2,2,2-trifluoroacetic acid salt (1:2)]: less than 0.1 µM; for `N[C@@H]1C[C@H]1NS(=O)(=O)N1C[C@H](CCCB(O)O)[C@](N)(C(=O)O)C1` (racemic) [Example 15, (3R,4S)-3-amino-1-(N-((rac)trans-2-aminocyclopropyl)sulfamoyl)-4-(3-boronopropyl)pyrrolidine-3-carboxylic acid (diastereomers), (1:2) 2,2,2-trifluoroacetic acid salt]: less than 0.1 µM. Consider `N[C@H]1COCC1NS(=O)(=O)N1C[C@H](CCCB(O)O)[C@](N)(C(=O)O)C1` (mixture of isomers) [Example 23, (rac)-trans-3-amino-1-(N-((rac)cis-4-aminotetrahydrofuran-3-yl)sulfamoyl)-4-(3-boronopropyl)pyrrolidine-3-carboxylic acid (diastereomers), 2,2,2-trifluoroacetic acid salt (1:2)], for which the half-inhibitory concentration (IC50) lay within 0.1 to 1 µM.

One may read the IC50 as the midpoint of a concentration-inhibition curve.
